Laboratory results as given in US9522154B2, “Method for scheduling ovulation” (LABORATOIRE HRA-PHARMA, priority 2013, dated 2016).

Columns and labels:
women [1] = test: Open-label trial of repeated ulipristal acetate 30 mg oral tablet, once weekly (Q7D) or every 5 days (Q5D) for 8 weeks: ovulation; type: in vivo, human
Procedure: In an open-label designed trial, 12 women received once weekly (Q7D) treatment with ulipristal acetate (30 mg oral tablet) for eight consecutive weeks starting on 7 days ±1 day after the onset of menses in the first cycle; and 11 women received ulipristal acetate 30 mg every 5 days (Q5D) for 8 weeks. […] The first ovulation occurred after a mean of 3.4 and 6.5 doses, and a mean of 17 and 26 days after start of treatment, in the Q7D and Q5D treatment arms, respectively.
Whenulipristal acetate was given during the follicular phase before the onset of the LH surge, ovulation occurred between 6 and 9 days of the last treatment intake in the majority of women.

leading ovarian follicle = test: Clinical trial of a single oral 30 mg dose on the outcome of the leading ovarian follicle before LH surge; type: in vivo, human; details: follicle 14-16 mm
Procedure: The results from the clinical trial described in Example 2 were confirmed by a second clinical trial designed to evaluate the effect of a single oral dosage of 30 mg ulipristal acetate on the outcome of the leading ovarian follicle before LH surge, when the follicle was 14-16 mm in diameter. 31 women satisfying all the exclusion/inclusion criteria were enrolled. After the inclusion visit, the women entered the study and underwent ultrasound monitoring starting from Day 5 of their menstrual cycle until the lead follicle reached a diameter of 14-16 mm. At this time, the women received one single dosage of 30 mg ulipristal acetate orally. The women were then monitored daily by ultrasound and hormonal assays until the end of the 21 days treatment period or until ovulation occurred or until the mucus score reached 4 or less at 2 consecutive visits, whichever came first. After which point they were seen twice a week until the end of the study.

women [2] = details: single dose of 30 mg within 72 hours or 120 hours after the intercourse; cited from earlier work

## CC(=O)O[C@]1(C(C)=O)CC[C@H]2[C@@H]3CCC4=CC(=O)CCC4=C3[C@@H](c3ccc(N(C)C)cc3)C[C@@]21C [ulipristal acetate, 17α-acetoxy-11β-[4-N, N-dimethylamino-phenyl)-19-norpregna-4,9-diene-3,20-dione]
Women [1]; Q5D arm, 30 mg every 5 days for 8 weeks
  mean time to first ovulation after start of treatment: 26 days
Women [1]; Q5D arm, 30 mg every 5 days for 8 weeks, 11 women
  mean number of doses until first ovulation: 6.5 doses
Women [1]; Q7D and Q5D regimens, majority of subjects
  inhibition of ovulation throughout the duration of treatment: Neither regimen inhibited ovulation throughout the duration of treatment in a majority of subjects
Women [1]; Q7D arm, 30 mg oral tablet once weekly for 8 weeks
  mean time to first ovulation after start of treatment: 17 days
Women [1]; Q7D arm, 30 mg oral tablet once weekly for 8 weeks, 12 women
  mean number of doses until first ovulation: 3.4 doses
Women [1]; after exposure to 30 mg
  parameters of the luteal phase (duration, progesterone levels): remain within the normal range
Women [1]; despite lengthened follicular phase and delay of LH surge, normal pregnancies after 30 mg exposure in emergency contraception trials
  fertilizability of the oocyte: the oocyte remains fertilizable
Leading ovarian follicle
  mean duration for the ovulation to occur: 7 days
  median duration for the ovulation to occur: 6 days
Leading ovarian follicle; 31 women
  Outcome of the leading follicle: Atresia, number of women: 0
  Outcome of the leading follicle: LUF, number of women: 2
  Outcome of the leading follicle: Luteal phase insufficiency, number of women: 1
  Outcome of the leading follicle: Ovulation, number of women: 27
  Outcome of the leading follicle: Persistent Follicle, number of women: 1
Women [2]
  avoidance of unwanted pregnancy (emergency contraception): safe and effective
